Measurements taken from PMC11206691, “N-Hydroxypiridinedione: A Privileged Heterocycle for Targeting the HBV RNase H” (Molecules, 2024).
Like-named read-outs stand apart in the source and are kept apart here.

Legend:
HBV replication [1] = details: Figures 1 and 2, earlier inhibitors; cited from earlier work
HepDES19 cells [2] = system: HepDES19 cells; parameters: method as in PMID 28450058, PMID 28633989, PMID 29565562, PMID 30768944; details: Figures 1 and 2, earlier inhibitors; cited from earlier work
[3] = Parallel artificial membrane permeability assay; format: in vitro ADME; details: PAMPA; for Papp interpretation (high/low permeability category) at 2 h, 200 µM: pH 7.4, pH 7.4; for Papp at 2 h, 200 µM: pH 7.4, pH 7.4, 200 μM, room temperature
Description: Apparent passive permeability (Papp) was assessed at pH 7.4 using a 96-well donor/acceptor cassette (Sigma Aldrich, Burlington, MA, USA), which mimics the apical and basolateral sides of the small intestine epithelium, as we have described previously. Briefly, an artificial membrane composed of 1% w/v lethicin/dodecane was added to the poly (vinylidene fluoride) (PVDF) membrane filter. Once dry, compounds (200 μM) were diluted in buffer at pH 7.4 and added to the donor side of the membrane, and the same pH buffer was added to the acceptor side. The cassette was assembled and incubated at room temperature with shaking at 250 rpm for 2 h, after which 100 μL of the acceptor well was retrieved and the experimental compound absorbance was read on a plate reader between 200 and 600 nm. Compound Papps (cm/s) values were determined by normalizing to the compound absorbance at equilibrium, incubation time, and membrane porosity Two or more replicate assays were conducted on different days.

HBV replication [4] = test: qPCR HBV replication inhibition assay in HepDES19 cells; format: cell-based, Hepatitis B virus (HBV) genotype D; details: Hepatitis B virus, 72 h, (+) DNA qPCR, read-out: EC50
Description: (§1) HepDES19 cells were incubated on collagen-coated plates at 37 °C with 5% CO2 and saturating humidity in Dulbecco’s modified Eagle’s medium (DMEM/F12) (Cytiva Life Sciences, Marlborough, MA, USA) supplemented with 10% fetal bovine serum (FBS), penicillin (100 IU/mL), and streptomycin (100 µg/mL). HepDES19 cells are HepG2 cells that carry a stably transfected HBV genotype D genome under the control of a tetracycline repressible promoter. Cells were maintained in the presence of 1 µg/mL tetracycline to repress the expression of the stably integrated HBV genome, and HBV replication was induced by the withdrawal of tetracycline from the culture medium.
HBV replication inhibition was measured in HepDES19 cells induced to replicate HBV by the removal of tetracycline using a strand-preferential quantitative PCR assay as previously described. Cells were seeded at 4 × 10^4 cells/well in 96-well plates for 48 h. Serially diluted compound was then added to cells at a final concentration of 1% DMSO for 72 h, after which the cells were lysed and qPCR was performed as described in Li et al.. EC50 values were calculated from the (+) DNA data with GraphPad Prism using the four-parameter log (inhibitor) versus response algorithm with the bottom value set to zero. Three or more replicate assays were performed on different days.

MTS cytotoxicity assay = format: cell-based; details: human, HepDES19 cells
Description: as §1
(§2) Cell viability was assessed using the CellTiter 96^TM Aqueous Non-Radioactive Cell Proliferation assay (MTS) (Promega, Madison, WI, USA) as described previously. HepDES19 cells were seeded at 1 × 10^4 cells per well in 96-well, and compound was added after 48 h. Cells incubated with serially diluted compound (1% DMSO) for 72 h. Bac absorbance values were subtracted, and data were converted to percent cell viability. The cytotoxic concentration 50% (CC50) values were calculated with GraphPad Prism by using the four-parameter variable response log (inhibitor) versus response algorithm with the bottom value set to zero. Three or more replicate assays were performed on different days.

[5] = Solubility limit assay (turbidity, DMEM-F12 + 10% FBS); format: physicochemical; details: DMEM-F12 without phenol red with 10% FBS, plasma or biological fluid, kinetic from dmso stock; pH 7.4, DMEM-F12 with 10% FBS, 1% DMSO, upper limit 200 µM
Description: Compound solubility limits were tested in DMEM-F12 without phenol red (Gibco, Grand Island, NY, USA) supplemented with 10% FBS (pH 7.2–7.4) to mimic cell culture experiments, as we have performed previously. Compounds were serially diluted in buffer at pH 7.4 in 384-well, optically clear plates (upper limit 200 µM, DMSO 1%) and read on a plate reader at 620 nm. Compound concentration (µM) was plotted against optical density (OD) and a solubility limit was determined by identifying an inflection point where there was a significant increase in optical density due to increasing turbidity; the concentration of the compound at the inflection point was defined as the solubility limit. Two or more replicate assays were performed on different days for each compound.

HepDES19 cells [6] = test: MTS cytotoxicity assay; format: cell-based; details: 72 h
Description: as §1, §2

SMILES	EC50 (HBV replication [1]) [µM]	CC50 (HepDES19 cells [2]) [µM]	Papp interpretation (high/low permeability category) at 2 h, 200 µM [3] [×10⁻⁶ cm/s]	Papp at 2 h, 200 µM [3] [×10⁻⁶ cm/s]	EC50 (HBV replication [4]) [µM]	CC50 at 72 h (MTS cytotoxicity assay) [µM]	melting point	solubility [5] [µM]	CC50 (HepDES19 cells [6])
COc1ccc(CON=C(C)c2c(C)cc(=O)n(O)c2O)cc1 [A24]	0.29	102							
CC(=NOC(C)c1ccccc1)c1c(C)cc(=O)n(O)c1O (stereo not drawn) [Compound 46, 1,6-Dihydroxy-4-methyl-5-(1-((1-phenylethoxy)imino)ethyl)pyridin-2(1H)-one]			> 1	3.19	3.1 ± 0.5	100	130 to 132 °C	> 200	
COC(=O)c1ccc(CON=C(C)c2c(C)cc(=O)n(O)c2O)cc1 [Compound 47, 4′-((((1′-(1,2-Dihydroxy-4-methyl-6-oxo-1,6-dihydropyridin-5-yl)ethylidene)amino)oxy)methyl)methyl benzoate]			> 1	5.52	1.1 ± 0.4	100	120 °C (dec.)	> 200	minimally cytotoxic
CC(=NOCc1ccc([N+](=O)[O-])cc1)c1c(C)cc(=O)n(O)c1O [Compound 48, 1,6-Dihydroxy-4-methyl-5-(1-(((4-nitrobenzyl)oxy)imino)ethyl)pyridin-2(1H)-one]			> 1	5.38	1.1 ± 0.2	99.6 ± 0.6	105 to 107 °C	> 200	minimally cytotoxic
CC(=NOC(CNC(=O)c1ccc2ccccc2n1)c1cc(F)cc(F)c1)c1c(C)cc(=O)n(O)c1O (stereo not drawn) [Compound 49, N-(2-(3,5-Difluorophenyl)-2-(((1-(1,2-dihydroxy-4-methyl-6-oxo-1,6-dihydropyridin-3-yl)ethylidene)amino)oxy)ethyl)quinoline-2-carboxamide]			> 1	6.71	3.5 ± 0.8	99.9 ± 0.2	108 to 110 °C (dec.)	> 200	
CC(=NOC(CNC(=O)c1nccs1)c1cc(F)cc(F)c1)c1c(C)cc(=O)n(O)c1O (stereo not drawn) [Compound 50, N-(2-(3,5-Difluorophenyl)-2-(((1-(1,2-dihydroxy-4-methyl-6-oxo-1,6-dihydropyridin-3-yl)ethylidene)amino)oxy)ethyl)thiazole-2-carboxamide]			> 1	4.67	4 ± 1.5	100	117 to 119 °C (dec.)	> 200	
O=C(Nc1ccc2c(c1)C(=O)N(O)C(=O)C2C(=O)NCc1ccc(F)cc1)c1ccccc1 (stereo not drawn) [HID]	1.4	99							
NCc1ccc(-c2ccc(Cc3cc(=O)n(O)c4ncccc34)cc2)cc1 [HNO]	3.4	7.1							
C/C(=N\c1cccc(Br)c1)c1c(C)cc(=O)n(O)c1O [HPD imine]	1.1	62.3							
COC(=O)c1c2c(cc(O)c(=O)c1O)COC2=O [a-HT]	0.5	> 77							
